Where two headings read alike, the source gives them in different places.
Tests used:
[1] = molecular target: T1, Estrogen receptor beta (ERβ) (Homo sapiens, UniProt Q92731); assay: Receptor Selection and Amplification Technology (R-SAT) functional receptor assay, ERβ; format: cell-based
T1 construct: expressed in transfected cells; host or cells: NIH3T3
Description: NIH3T3 cells were grown in roller bottles to 70-80% confluence. Cells were then transfected for 12-16 h with plasmid DNAs using Polyfect (Qiagen Inc.) as per the manufacturer's protocol. R-SAT assays were typically performed by transfecting 30 ug/bottle of receptor and 50 ug/bottle of β-galactosidase plasmid DNA. All receptor and helper constructs used were in mammalian expression vectors. Helpers are defined as signaling molecules that modulate both ligand-dependent and/or ligand-independent function of the ER receptors, typically co-activators and kinases. NIH3T3 cells were transfected for 12-16 h, then trypsinized and frozen in DMSO. Frozen cells were later thawed, plated at 10,000-40,000 cells per well of a 96 well plate containing 4-(1-Phenyl-cyclohexyl)-phenol. Cells were then grown in a humidified atmosphere with 5% ambient CO2 for five days. Media was then removed from the plates and marker gene activity was measured by the addition of the β-galactosidase substrate o-nitrophenyl β-D-galactopyranoside (ONPG, in PBS with 5% NP-40). […] All data were analyzed using the computer program XLFit (IDBSm).

[2] = molecular target: T2, Estrogen receptor alpha (ERα) (Homo sapiens, UniProt P03372); assay: Receptor Selection and Amplification Technology (R-SAT) functional receptor assay, ERα; format: cell-based; conditions: for Emax / % Efficacy ERα: NIH3T3 cells, efficacy relative to the reference ligand Estrone; for EC50 / pEC50 ERα: transfected NIH3T3 cells, agonist activity
T2 construct: expressed in transfected cells; host or cells: NIH3T3
T2 sequence (P03372 1-595): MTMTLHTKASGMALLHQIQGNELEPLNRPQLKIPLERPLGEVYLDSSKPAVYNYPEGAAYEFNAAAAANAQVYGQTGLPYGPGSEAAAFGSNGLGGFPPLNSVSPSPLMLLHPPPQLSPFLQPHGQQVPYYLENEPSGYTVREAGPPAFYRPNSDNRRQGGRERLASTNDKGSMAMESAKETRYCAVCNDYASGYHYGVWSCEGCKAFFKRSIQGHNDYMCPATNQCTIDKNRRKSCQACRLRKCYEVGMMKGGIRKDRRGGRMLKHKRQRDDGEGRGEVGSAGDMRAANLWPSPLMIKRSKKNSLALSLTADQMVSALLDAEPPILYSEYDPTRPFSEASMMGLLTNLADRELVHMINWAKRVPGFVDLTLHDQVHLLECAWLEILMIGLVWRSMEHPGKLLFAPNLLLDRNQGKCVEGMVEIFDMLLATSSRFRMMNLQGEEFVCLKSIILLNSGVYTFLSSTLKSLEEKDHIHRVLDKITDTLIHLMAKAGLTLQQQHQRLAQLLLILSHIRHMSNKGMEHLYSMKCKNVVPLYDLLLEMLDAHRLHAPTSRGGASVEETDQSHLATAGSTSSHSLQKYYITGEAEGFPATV
Description: The functional receptor assay, Receptor Selection and Amplification Technology (R-SAT™), was used with minor modifications from the procedure described in U.S. Pat. No. 5,707,798, which is hereby incorporated by reference in its entirety, to screen compounds for efficacy at the Estrogen receptors alpha and beta (ERα, ERβ). NIH3T3 cells were grown in roller bottles to 70-80% confluence. Cells were then transfected for 12-16 h with plasmid DNAs using Polyfect (Qiagen Inc.) as per the manufacturer's protocol. R-SAT assays were typically performed by transfecting 30 ug/bottle of receptor and 50 ug/bottle of β-galactosidase plasmid DNA. All receptor and helper constructs used were in mammalian expression vectors. Helpers are defined as signaling molecules that modulate both ligand-dependent and/or ligand-independent function of the ER receptors, typically co-activators and kinases. NIH3T3 cells were transfected for 12-16 h, then trypsinized and frozen in DMSO. Frozen cells were later thawed, plated at 10,000-40,000 cells per well of a 96 well plate containing 4-(1-Phenyl-cyclohexyl)-phenol. Cells were then grown in a humidified atmosphere with 5% ambient CO2 for five days. Media was then removed from the plates and marker gene activity was measured by the addition of the β-galactosidase substrate o-nitrophenyl β-D-galactopyranoside (ONPG, in PBS with 5% NP-40). The resulting colorimetric reaction was measured in a spectrophotometric plate reader (Titertek Inc.) at […]. All data were analyzed using the computer program XLFit (IDBSm).
These experiments provided a molecular profile, or fingerprint, for each agent tested at the human Estrogen receptors.

[3] = tested on: immature female Sprague-Dawley rats; assay: Uterotrophic in vivo assay (uterine weight); design: species or system rat; conditions: 10, 30 or 100 mg/kg s.c. daily for 3 days; FIG. 4
Description: The effect of ERB-002 on uterine weight was assessed based on the previously published method of Harris et al., Endocrin, 2003, 143:4172, which is hereby incorporated by reference in its entirety. Naïve, female Sprague-Dawley rats (30-40 g; n=6 per group) served as subjects. Rats received daily subcutaneous injections of vehicle (100% DMSO), PPT (1.0 mg/rat)), a reportedly selective ERα agonist (Stauffer, 2000, J Med Chem 43:4934) or various doses of ERB-002 (10, 30 or 100 mg/kg) for a total of 3 days. Approximately 24 hours after the final injection, the rats were sacrificed, the uteri removed, trimmed of adhesions, fluid expelled and then weighed. Uterine weight was normalized as a percentage of total body weight by the following formula: % TBW=[(uterus weight (in mg)[…])/(body weight (in g))]*100.

[4] = tested on: male Sprague-Dawley rats; assay: CFA induced arthritis rat model assay (hot plate latency, paw thickness); format: in vivo; conditions: 1.0, 3.0 or 10 mg/kg s.c. daily from Day 4 after CFA
Description: Naïve, male Sprague-Dawley rats (225-250 g; n=6 per group) served as subjects. Response latencies to a noxious thermal stimulus were measured using the 52° C. hot plate test. After obtaining baseline responses, 0.1 ml of Freund's complete adjuvant (CFA) or vehicle (inactivated CFA (iCFA)) was injected into the dorsal surface of the left hind paw. Response latencies were again measured 4 days following CFA (or iCFA) administration, a time point when thermal hyperalgesia is stable. A significant decrease in the hot plate latency was interpreted as the presence of thermal hyperalgesia. Following testing, thickness of both hind paws were measured (using a micrometer) in order to quantify possible edema formation at the injection site. Various doses of 4-(1-Phenyl-cyclohexyl)-phenol (ERB-002) (1.0, 3.0 or 10 mg/kg) or vehicle (DMSO) were administered (s.c.) following testing on Day 4, and then daily following testing for a period of 3 days.

[5] = R-SAT, NIH3T3 cells, efficacy relative to the reference ligand Estrone, read-out: % Efficacy ERβ
[6] = R-SAT, transfected NIH3T3 cells, agonist activity, read-out: pEC50 ERβ (converted)
[7] = R-SAT, NIH3T3 cells, efficacy relative to the reference ligand Estrone
[8] = R-SAT, transfected NIH3T3 cells, agonist activity

T1 sequence (Q92731 whole entry): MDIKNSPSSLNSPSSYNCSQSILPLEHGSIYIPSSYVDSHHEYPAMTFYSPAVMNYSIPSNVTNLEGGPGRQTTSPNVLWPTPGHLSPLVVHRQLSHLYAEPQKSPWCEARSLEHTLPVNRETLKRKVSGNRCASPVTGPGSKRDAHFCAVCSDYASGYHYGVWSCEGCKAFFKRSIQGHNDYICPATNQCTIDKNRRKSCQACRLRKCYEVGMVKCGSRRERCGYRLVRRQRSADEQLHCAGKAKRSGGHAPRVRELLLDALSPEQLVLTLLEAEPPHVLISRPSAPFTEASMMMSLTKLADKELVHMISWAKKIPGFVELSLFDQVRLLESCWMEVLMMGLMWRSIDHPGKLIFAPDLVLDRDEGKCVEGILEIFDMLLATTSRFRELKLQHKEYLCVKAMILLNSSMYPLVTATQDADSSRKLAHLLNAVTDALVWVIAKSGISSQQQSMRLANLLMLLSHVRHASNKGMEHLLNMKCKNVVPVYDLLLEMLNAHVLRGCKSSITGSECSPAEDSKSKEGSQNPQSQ

| Compound | Emax [1, 5] | EC50 [1, 6] | Emax [2] | EC50 [2] | further results |
| --- | --- | --- | --- | --- | --- |
| Oc1ccc(C2(c3ccc(F)cc3)CCCCCC2)cc1O [ERB-014, 4-[1-(4-Fluoro-phenyl)-cycloheptyl]-benzene-1,2-diol] | 87% | 79.4 nM | 120% | 1260 nM | – |
| Oc1ccc(C2(c3ccc(F)cc3F)CCCCC2)cc1 [ERB-011, 4-(1-(2,4-Difluoro-phenyl)-cyclohexyl)-phenol] | 37% | 79.4 nM | 20% | > 10000 nM | – |
| CC(C)C1CCC(c2ccc(O)cc2)(c2cccc(F)c2)CC1 (stereo not shown) [ERB-037, 4-[1-(3-Fluoro-phenyl)-4-isopropyl-cyclohexyl]-phenol] | 48% | 7.94 nM | 114% | 1580 nM | – |
| Oc1ccc(C2(c3ccccc3)CCCCC2)cc1 [ERB-002, 4-(1-Phenylcyclohexyl)phenol] | – | – | 50% | 3160 nM | uterotrophic properties (uterine weight as % of total body weight) [3]: does not display uterotrophic properties; reversal of thermal hyperalgesia (52° C. hot plate latency) ([4]; FIG. 2): dose dependent reversal of thermal hyperalgesia; reversal of edema (paw thickness) ([4]; FIG. 3): dose dependent reversal of edema; EC50 [1]: 63.1 nM; Emax ([1]; NIH3T3, read-out: % Efficacy ERβ): 85%; selectivity of activation of ERβ relative to ERα ([1]; R-SAT, Table 1 and FIG. 1): selectively activates Estrogen beta receptor (ERβ) relative to the Estrogen alpha receptor (ERα) |
| Oc1ccc(C2(c3ccc(F)c(F)c3)CCCCC2)cc1 [ERB-009] | – | – | – | – | % Efficacy ERβ [1, 7]: 138%; pEC50 ERβ [1, 8]: 7.2; % Efficacy ERα [2]: 100%; pEC50 ERα [2]: 5.4 |
| Oc1ccc(C2(c3ccc(F)cc3)CCC(C(F)(F)F)CC2)cc1 (stereo not shown) [ERB-031, 4-(1-(4-Flourophenyl)-[4-(trifluoromethyl)-cyclohexyl])-phenol] | – | – | – | – | % Efficacy ERβ [1, 7]: 62%; pEC50 ERβ [1, 8]: 6.1; % Efficacy ERα [2]: 124%; pEC50 ERα [2]: 5.6 |

Now from value to compound, other results behind:

| Emax [1, 5] | EC50 [1, 6] | Emax [2] | EC50 [2] | Compound | further results |
| --- | --- | --- | --- | --- | --- |
| 41% | 126 nM | 69% | 631 nM | Oc1ccc(C2(c3ccccc3)CCCCCC2)cc1 [ERB-012, 4-(1-Phenyl-cycloheptyl)-phenol] | – |
| 46% | 63.1 nM | 95% | 2510 nM | Oc1ccc(C2(c3ccccc3)CCC(C(F)(F)F)CC2)cc1 (stereo not shown) [ERB-030, 4-(1-Phenyl-[4-(trifluoromethyl)-cyclohexyl])-phenol] | – |
| 46% | 6.31 nM | 80% | 251 nM | Oc1ccc(C2(c3ccccc3)CCCCCCC2)cc1 [ERB-017, 4-(1-Phenyl-cyclooctyl)-phenol] | – |

From patent US20050256210A1, “Compounds with activity at estrogen receptors” (priority 2004, published 2005)
